Where two headings read alike, the source gives them in different places.
Assays:
5-HT2B = 5-HT2B (Homo sapiens, UniProt P41595); assay: PDSP screening affinity 5-HT2B; assay type: binding; conditions: 5-HT2B affinity
h5-HT2A = h5-HT2A (Homo sapiens, UniProt P28223); assay: Ca2+ mobilization assay; assay type: cell-based; conditions: for Emax: HEK293, read-out: h5-HT2A Emax, percentage of the maximum response to 5-HT
5-HT3 = target: T1, 5-HT3 (Homo sapiens, UniProt P46098); assay: PDSP screening affinity 5-HT3; assay type: binding
T1 sequence (P46098 24-478): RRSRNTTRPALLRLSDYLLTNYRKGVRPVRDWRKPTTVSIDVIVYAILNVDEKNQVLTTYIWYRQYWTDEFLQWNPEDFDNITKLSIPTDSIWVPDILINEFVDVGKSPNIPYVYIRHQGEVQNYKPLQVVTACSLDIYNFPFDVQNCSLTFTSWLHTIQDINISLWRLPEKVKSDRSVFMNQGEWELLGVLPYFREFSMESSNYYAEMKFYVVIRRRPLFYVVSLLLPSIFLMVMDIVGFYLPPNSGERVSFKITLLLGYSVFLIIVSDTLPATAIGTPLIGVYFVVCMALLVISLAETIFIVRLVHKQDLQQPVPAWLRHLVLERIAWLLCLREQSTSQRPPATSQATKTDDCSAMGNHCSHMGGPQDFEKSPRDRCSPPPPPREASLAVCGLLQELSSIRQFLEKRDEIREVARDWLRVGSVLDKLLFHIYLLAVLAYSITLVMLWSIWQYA

human 5-HT2C receptor [1] = target: T2, human 5-HT2C receptor (Homo sapiens, UniProt P28335); assay: h5-HT2C affinity, agonist radioligand [125I]DOI; assay type: binding
T2 sequence (P28335 33-458): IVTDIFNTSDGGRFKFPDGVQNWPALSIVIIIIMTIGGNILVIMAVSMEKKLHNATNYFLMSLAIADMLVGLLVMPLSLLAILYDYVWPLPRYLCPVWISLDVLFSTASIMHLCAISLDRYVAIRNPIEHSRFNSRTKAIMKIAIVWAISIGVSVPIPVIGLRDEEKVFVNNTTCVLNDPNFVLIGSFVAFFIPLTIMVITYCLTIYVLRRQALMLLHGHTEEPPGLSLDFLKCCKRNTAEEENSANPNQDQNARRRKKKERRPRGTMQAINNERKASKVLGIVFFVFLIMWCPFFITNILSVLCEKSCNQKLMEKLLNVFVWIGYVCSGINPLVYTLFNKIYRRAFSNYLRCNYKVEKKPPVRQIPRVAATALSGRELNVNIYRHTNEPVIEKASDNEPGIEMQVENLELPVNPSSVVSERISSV

Male C57BL/6J mice = assay: Mouse head twitch response; conditions: for max counts: HTR counts; for ED50: Mus musculus, sc, read-out: ED50 mg/kg (95% CI), mouse head twitch; for magnitude of peak effect × vehicle / maximally effective dose: mouse head twitch
5-HT1B = 5-HT1B (Homo sapiens, UniProt P28222); assay: PDSP screening affinity 5-HT1B; assay type: binding
Sequence of 5-HT1B (P28222 whole entry): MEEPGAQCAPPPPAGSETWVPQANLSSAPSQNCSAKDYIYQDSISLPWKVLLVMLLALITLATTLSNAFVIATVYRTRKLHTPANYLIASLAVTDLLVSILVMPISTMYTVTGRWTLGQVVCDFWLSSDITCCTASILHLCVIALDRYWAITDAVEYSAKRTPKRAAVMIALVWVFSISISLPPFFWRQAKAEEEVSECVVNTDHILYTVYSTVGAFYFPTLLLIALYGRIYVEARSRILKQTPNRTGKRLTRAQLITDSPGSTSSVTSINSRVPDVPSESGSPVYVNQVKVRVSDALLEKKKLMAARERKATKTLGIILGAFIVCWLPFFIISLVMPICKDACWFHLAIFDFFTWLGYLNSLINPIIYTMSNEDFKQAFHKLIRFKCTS

5-HT7 = 5-HT7 (Homo sapiens, UniProt P34969); assay: PDSP screening affinity 5-HT7; assay type: binding
Sequence of 5-HT7 (P34969 whole entry): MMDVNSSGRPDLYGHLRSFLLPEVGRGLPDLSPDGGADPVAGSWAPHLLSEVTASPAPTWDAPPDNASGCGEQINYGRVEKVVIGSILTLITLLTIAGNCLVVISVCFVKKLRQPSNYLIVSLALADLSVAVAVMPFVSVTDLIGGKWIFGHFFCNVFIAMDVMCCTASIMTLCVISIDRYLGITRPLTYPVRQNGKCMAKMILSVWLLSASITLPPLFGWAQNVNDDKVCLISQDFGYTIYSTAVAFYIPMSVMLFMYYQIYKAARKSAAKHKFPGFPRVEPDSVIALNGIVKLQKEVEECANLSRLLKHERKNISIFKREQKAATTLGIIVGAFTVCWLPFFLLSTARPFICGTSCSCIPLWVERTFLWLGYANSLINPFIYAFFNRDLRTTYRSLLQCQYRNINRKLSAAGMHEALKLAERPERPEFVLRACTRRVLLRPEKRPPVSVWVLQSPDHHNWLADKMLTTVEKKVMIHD

r5-HT2A = r5-HT2A (Rattus norvegicus, UniProt P14842); assay: Ca2+ mobilization assay; assay type: cell-based; conditions: for EC50: r5-HT2A EC50, Ca2+ mobilization; for Emax: read-out: r5-HT2A Emax, percentage of the maximum response to 5-HT
Sequence of r5-HT2A (P14842 whole entry): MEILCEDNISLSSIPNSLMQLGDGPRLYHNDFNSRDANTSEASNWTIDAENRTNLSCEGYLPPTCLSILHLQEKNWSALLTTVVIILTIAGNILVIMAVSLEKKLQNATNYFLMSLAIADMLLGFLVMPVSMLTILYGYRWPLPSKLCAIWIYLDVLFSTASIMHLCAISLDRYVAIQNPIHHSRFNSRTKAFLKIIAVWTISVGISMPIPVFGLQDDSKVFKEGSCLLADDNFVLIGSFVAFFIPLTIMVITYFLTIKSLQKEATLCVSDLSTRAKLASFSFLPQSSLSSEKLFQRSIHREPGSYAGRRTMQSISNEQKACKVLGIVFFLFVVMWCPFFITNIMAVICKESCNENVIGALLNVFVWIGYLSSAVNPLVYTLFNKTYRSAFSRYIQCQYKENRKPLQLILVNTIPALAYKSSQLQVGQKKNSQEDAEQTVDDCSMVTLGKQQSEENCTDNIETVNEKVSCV

5-HT1A = target: T3, 5-HT1A (Homo sapiens, UniProt P08908); assay: PDSP screening affinity 5-HT1A; assay type: binding; conditions: 5-HT1A affinity
T3 sequence (P08908 1-422): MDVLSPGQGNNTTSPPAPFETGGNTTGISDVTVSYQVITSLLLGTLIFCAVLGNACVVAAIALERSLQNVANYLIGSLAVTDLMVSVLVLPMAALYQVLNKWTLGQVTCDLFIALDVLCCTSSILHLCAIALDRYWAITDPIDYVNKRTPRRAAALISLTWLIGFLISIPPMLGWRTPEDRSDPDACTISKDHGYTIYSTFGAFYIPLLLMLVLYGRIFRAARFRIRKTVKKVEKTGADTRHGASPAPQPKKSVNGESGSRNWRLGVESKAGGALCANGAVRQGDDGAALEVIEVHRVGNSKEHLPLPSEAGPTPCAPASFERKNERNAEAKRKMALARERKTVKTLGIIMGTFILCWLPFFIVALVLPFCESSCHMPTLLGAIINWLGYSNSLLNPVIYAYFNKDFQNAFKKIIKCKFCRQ

5-HT2A receptor [2] = target: T4, 5-HT2A receptor (Homo sapiens, UniProt P28223); assay: h5-HT2A affinity, antagonist radioligand [3H]ketanserin; assay type: binding
T4 sequence (P28223 whole entry): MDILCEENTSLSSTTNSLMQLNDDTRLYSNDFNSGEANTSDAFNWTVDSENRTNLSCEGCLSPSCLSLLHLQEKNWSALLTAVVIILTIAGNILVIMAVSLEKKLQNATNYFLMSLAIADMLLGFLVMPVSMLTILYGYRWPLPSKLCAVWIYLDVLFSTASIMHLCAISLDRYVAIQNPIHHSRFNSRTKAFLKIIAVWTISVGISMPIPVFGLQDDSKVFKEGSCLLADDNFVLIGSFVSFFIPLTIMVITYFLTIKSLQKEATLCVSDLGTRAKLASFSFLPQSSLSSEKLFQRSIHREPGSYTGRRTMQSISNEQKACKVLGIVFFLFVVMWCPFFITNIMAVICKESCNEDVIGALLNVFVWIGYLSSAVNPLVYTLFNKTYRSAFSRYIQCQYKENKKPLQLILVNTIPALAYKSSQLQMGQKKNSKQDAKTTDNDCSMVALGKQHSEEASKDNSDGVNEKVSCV

h5-HT2C = target: T5, h5-HT2C (Homo sapiens, UniProt P28335); assay: Ca2+ mobilization assay; assay type: cell-based; conditions: for Emax: HEK293, read-out: h5HT2C Emax; for EC50: h5HT2C EC50, Ca2+ mobilization
T5 sequence (P28335 33-458): T2 sequence (P28335 33-458)

5-HT1D = 5-HT1D (Homo sapiens, UniProt P28221); assay: PDSP screening affinity 5-HT1D; assay type: binding
Sequence of 5-HT1D (P28221 whole entry): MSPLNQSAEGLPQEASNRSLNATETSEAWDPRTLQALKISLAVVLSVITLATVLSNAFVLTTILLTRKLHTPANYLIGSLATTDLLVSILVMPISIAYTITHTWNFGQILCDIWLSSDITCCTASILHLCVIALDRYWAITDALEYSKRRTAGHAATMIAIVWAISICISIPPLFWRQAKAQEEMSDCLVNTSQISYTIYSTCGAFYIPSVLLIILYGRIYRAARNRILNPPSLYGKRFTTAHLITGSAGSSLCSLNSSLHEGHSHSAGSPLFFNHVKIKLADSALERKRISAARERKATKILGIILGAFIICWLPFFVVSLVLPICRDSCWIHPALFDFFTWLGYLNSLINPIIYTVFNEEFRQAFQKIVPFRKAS

human 5-HT2C receptor [3] = target: T2, human 5-HT2C receptor; assay: h5-HT2C affinity, antagonist radioligand [3H]mesulergine; assay type: binding
5-ht1e = 5-ht1e (Homo sapiens, UniProt P28566); assay: PDSP screening affinity 5-ht1e; assay type: binding
Sequence of 5-ht1e (P28566 whole entry): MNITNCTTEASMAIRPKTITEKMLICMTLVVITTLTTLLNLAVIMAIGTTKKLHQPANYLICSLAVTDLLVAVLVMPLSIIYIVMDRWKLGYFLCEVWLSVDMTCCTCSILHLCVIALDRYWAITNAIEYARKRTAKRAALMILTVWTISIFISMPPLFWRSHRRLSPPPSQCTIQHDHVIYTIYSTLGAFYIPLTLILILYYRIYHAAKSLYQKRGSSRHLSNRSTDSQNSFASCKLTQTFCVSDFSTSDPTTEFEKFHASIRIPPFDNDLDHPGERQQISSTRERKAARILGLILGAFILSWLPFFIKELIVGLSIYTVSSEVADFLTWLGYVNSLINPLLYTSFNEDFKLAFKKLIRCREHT

5-HT2A receptor [4] = target: T4, 5-HT2A receptor; assay: h5-HT2A affinity, agonist radioligand [125I]DOI; assay type: binding
r5-HT2C = target: T6, r5-HT2C (Rattus norvegicus, UniProt P08909); assay: Ca2+ mobilization assay; assay type: cell-based; conditions: for Emax: read-out: r5-HT2C Emax
T6 sequence (P08909 33-460): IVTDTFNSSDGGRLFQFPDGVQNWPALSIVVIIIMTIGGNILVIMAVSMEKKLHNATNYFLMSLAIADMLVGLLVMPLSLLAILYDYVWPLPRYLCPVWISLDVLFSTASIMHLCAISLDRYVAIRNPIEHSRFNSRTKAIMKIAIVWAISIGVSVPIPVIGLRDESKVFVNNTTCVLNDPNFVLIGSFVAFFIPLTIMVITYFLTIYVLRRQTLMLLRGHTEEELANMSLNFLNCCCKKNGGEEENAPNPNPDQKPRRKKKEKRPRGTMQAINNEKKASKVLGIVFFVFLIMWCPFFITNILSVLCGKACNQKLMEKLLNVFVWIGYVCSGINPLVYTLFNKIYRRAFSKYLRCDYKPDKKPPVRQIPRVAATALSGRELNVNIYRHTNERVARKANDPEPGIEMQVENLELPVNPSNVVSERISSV

5-ht5a = 5-ht5a (Homo sapiens, UniProt P47898); assay: PDSP screening affinity 5-ht5a; assay type: binding; conditions: 5-ht5a affinity
Sequence of 5-ht5a (P47898 whole entry): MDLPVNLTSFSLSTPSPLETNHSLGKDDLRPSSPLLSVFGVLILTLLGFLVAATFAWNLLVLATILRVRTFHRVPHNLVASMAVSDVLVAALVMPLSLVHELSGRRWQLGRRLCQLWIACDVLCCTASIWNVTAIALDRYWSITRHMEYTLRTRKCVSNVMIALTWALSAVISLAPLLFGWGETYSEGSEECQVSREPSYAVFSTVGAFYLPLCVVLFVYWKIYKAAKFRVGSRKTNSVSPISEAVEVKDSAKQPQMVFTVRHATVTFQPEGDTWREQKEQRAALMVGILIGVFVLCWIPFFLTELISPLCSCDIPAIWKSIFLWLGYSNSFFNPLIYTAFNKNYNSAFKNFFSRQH

h5-HT2B = h5-HT2B (Homo sapiens, UniProt P41595); assay: Ca2+ mobilization assay; assay type: cell-based; conditions: for Emax: HEK293, read-out: h5-HT2B Emax
Sequence of h5-HT2B (P41595 whole entry): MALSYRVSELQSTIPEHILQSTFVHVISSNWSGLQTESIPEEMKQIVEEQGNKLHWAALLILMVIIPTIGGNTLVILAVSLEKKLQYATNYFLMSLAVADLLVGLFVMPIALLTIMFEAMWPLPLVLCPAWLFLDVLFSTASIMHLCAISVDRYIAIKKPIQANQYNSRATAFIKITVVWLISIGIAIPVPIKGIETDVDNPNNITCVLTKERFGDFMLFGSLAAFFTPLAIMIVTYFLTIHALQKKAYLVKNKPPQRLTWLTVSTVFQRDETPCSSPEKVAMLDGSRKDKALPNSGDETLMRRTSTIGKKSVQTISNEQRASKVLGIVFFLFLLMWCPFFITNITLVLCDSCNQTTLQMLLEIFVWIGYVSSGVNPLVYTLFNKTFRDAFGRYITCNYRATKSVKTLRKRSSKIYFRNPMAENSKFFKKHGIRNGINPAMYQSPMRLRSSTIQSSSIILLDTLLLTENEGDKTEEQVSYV

5-HT6 = 5-HT6 (Homo sapiens, UniProt P50406); assay: PDSP screening affinity 5-HT6; assay type: binding
Sequence of 5-HT6 (P50406 whole entry): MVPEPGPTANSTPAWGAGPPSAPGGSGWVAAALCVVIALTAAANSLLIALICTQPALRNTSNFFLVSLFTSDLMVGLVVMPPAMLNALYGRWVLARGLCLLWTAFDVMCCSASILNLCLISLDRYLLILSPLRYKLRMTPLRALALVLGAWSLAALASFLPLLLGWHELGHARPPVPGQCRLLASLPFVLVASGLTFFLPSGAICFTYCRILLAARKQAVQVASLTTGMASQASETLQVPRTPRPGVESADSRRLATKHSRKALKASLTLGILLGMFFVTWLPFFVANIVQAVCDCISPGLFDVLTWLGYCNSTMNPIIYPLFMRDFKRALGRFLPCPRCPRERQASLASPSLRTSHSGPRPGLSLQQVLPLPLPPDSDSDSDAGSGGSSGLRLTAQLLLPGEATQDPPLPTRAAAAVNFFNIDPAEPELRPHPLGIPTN

[5] = r5-HT2C EC50, Ca2+ mobilization
[6] = h5-HT2B EC50, Ca2+ mobilization

Sequence of h5-HT2A (P28223 whole entry): as the sequence (P28223 whole entry) above
Sequence of 5-HT2B (P41595 whole entry): as the sequence (P41595 whole entry) above

Structure (SMILES)	Ki (5-HT2B) [nM]	EC50 (h5-HT2A) [nM]	Emax (h5-HT2A) [%]	Ki (5-HT3) [nM]	Ki (human 5-HT2C receptor [1]) [nM]	max counts (Male C57BL/6J mice; SC)	ED50 (Male C57BL/6J mice) [mg/kg]	magnitude of peak effect × vehicle (Male C57BL/6J mice; SC) [× vehicle]	maximally effective dose (Male C57BL/6J mice; SC) [mg/kg]	EC50 (r5-HT2A) [nM]	Emax (r5-HT2A) [%]	Ki (5-HT1A) [nM]	Ki (5-HT2A receptor [2]) [nM]	Emax (h5-HT2C) [%]	EC50 (h5-HT2C) [nM]	Ki (5-HT1D) [nM]	Ki (human 5-HT2C receptor [3]) [nM]	Ki (5-ht1e) [nM]	Ki (5-HT2A receptor [4]) [nM]	EC50 (r5-HT2C; [5]) [nM]	also measured
COc1cc(CCNCc2ccccc2Br)c(OC)cc1I [Compound 4c, N-(2-Bromobenzyl)-2-(4-iodo-2,5-dimethoxyphenyl)ethan-1-amine]	20	42	88 ± 1.5	> 10000	1.02	23.2	2.31	3.0	10	36	65.6 ± 1.6	1160	2.34	87 ± 5	57.6	423	8.71	> 10000	0.38	105	activity in the HTR assay (active / inactive) (Male C57BL/6J mice; SC, doses up to 30 mg/kg): active; Ki (5-HT1B; 5-HT1B affinity): > 10000 nM; Ki (5-HT7; 5-HT7 affinity): 2550 nM; Emax (r5-HT2C): 104 ± 1%; Ki (5-ht5a): 2290 nM; Emax (h5-HT2B): 83 ± 3%; EC50 (h5-HT2B; [6]): 134 nM; EC50 (h5-HT2B; h5-HT2B pEC50 ± SEM, Ca2+ mobilization, NA = not active, Emax ≤ 15%): 151 nM; Ki (5-HT6; 5-HT6 affinity): 257 nM
COc1ccc2[nH]cc(CCNCc3cccc(I)c3)c2c1 [Compound 5i, N-(3-Iodobenzyl)-2-(5-methoxy-1H-indol-3-yl)ethan-1-amine]	0.76	16	79 ± 1.1	> 10000	1.05	20.2	7.77	3.4	30	120	73.4 ± 1.4	122	3.47	94 ± 5	445	199	6.46	> 10000	0.62	313	5-HT1B pKi ± SEM (5-HT1B): 5.53 ± 0.05; Ki (5-HT1B; read-out: 5-HT1B affinity): 2960 nM; Ki (5-HT7; 5-HT7 pKi ± SEM): 21.9 nM; h5-HT2A Ki (5-HT2A receptor [4]; [125I]DOI): subnanomolar affinity; EC50 (r5-HT2C; r5-HT2C pEC50 ± SEM, Ca2+ mobilization): 309 nM; Emax (r5-HT2C): 110 ± 3%; Ki (5-ht5a): 1540 nM; Emax (h5-HT2B): 31 ± 2%; EC50 (h5-HT2B; [6]): 43 nM; Ki (5-HT6; 5-HT6 affinity): 27 nM; Ki (5-HT6; 5-HT6 pKi ± SEM): 26.3 nM

From PMC4505863 (ACS Chemical Neuroscience, 2014)
